Reference: patent US20230295115A1, “SUBSTITUTED ISOQUINOLINYLMETHYL AMIDES, ANALOGUES THEREOF, AND METHODS USING SAME” (priority 2020, published 2023)
Read-outs that look alike come from different tables or passages of the source.

Tested on: HBV rcDNA
Experiment: HepDE19 assay with bDNA quantitation of HBV rcDNA
Assay type: cell-based, hepatitis B virus (HBV)
Summary of the method: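 HepDE19 cells were switched to tetracycline-free medium and exposed to compound (0.5% DMSO final) for 7 days at 37° C. rcDNA was then quantified by bDNA with an HBV-specific probe set. In parallel, viability was read as ATP content (CellTiter-Glo) after 4 days on replicate plates.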

SMILES | EC50 (HepDE19 cells, 7 day incubation, rcDNA measured by Quantigene 2.0 bDNA assay, top concentration 25 μM, read-out: DE-19bDNA EC50) [µM] | EC50 (Hepatitis B virus, HepDE19, 168 h, read-out: DE-19bDNA EC50 (μM), HepDE19 cells, 7 day incubation, rcDNA measured by Quantigene 2.0 bDNA assay, top concentration 25 μM) [µM]
CC(c1c[nH]c(=O)c2cc(F)c(F)cc12)N(C)C(=O)c1cc2cc(F)c(F)cc2[nH]1 (single isomer, unassigned) [Compound 15, N-(1-(6,7-Difluoro-1-oxo-1,2-dihydroisoquinolin-4-yl)ethyl)-5,6-difluoro-N-methyl-1H-indole-2-carboxamide] | 1.6 | 
C[C@H](c1c[nH]c(=O)c2cc(F)c(F)cc12)N(C)C(=O)c1ccn2cccc2c1 [Compound 187, (R)-N-(1-(6,7-Difluoro-1-oxo-1,2-dihydroisoquinolin-4-yl)ethyl)-N-methylindolizine-7-carboxamide] |  | 0.18
